Reference: patent US4065616A, “Processes for production of a 1-N-(α-hydroxy-.PHI.-amino alkanoyl)-3-deoxy-5-O-pentafuranosyl neamine and new compounds produced by the same processes” (Zaidan Hojin Biseibutsu Kagaku Kenkyu Kai, priority 1975, dated 1977)
Converted amounts (≈) assume the structure as drawn.

Columns and labels:
Assay in all cases: M.I.C. by standard serial dilution method
Type in all cases: cell-based
[1] = tested on: Escherichia coli K-12 JR66/W677; conditions: K12JR66/W677, 18 h, read-out: minimum inhibitory concentration (M.I.C.)
Protocol: (§1) These particular compounds, that is, 1-n-(α-hydroxy-ω-aminoalkanoyl)-3'-deoxy-5-O-pentofuranosylneamines according to the aforesaid general formula (I) have useful antibacterial activity against a wide variety of bacteria, including gram-negative bacteria and gram-positive bacteria. The minimum inhibitory concentration (M.I.C.) (mcg/ml) of these compounds against various organisms was determined by a standard serial dilution method at an incubation temperature of 37° C, the estimation being made after 18 hours incubation or each test organism, except that the incubation time was 48 hours for Mycobacterium smegmatis. The incubation medium used was nutrient agar.

[2] = tested on: Escherichia coli K-12 W677; conditions: K12W677, E. coli K-12 W677, nutrient agar, 37° C, 18 hours, read-out: minimum inhibitory concentration (M.I.C.)
Protocol: as §1

[3] = tested on: Klebsiella pneumoniae Type 22, No. 3038; conditions: K. pneumoniae Type 22, No. 3038, nutrient agar, 37° C, 18 hours, read-out: minimum inhibitory concentration (M.I.C.)
Protocol: as §1

[4] = tested on: Escherichia coli K-12 ML 1410 R81; conditions: 18 h, read-out: minimum inhibitory concentration (M.I.C.)
Protocol: as §1

[5] = tested on: Escherichia coli K-12 LA 290 R55; conditions: K12LA290R55, 18 h, read-out: minimum inhibitory concentration (M.I.C.)
Protocol: as §1

[6] = tested on: Pseudomonas aeruginosa A3; conditions: P. aeruginosa A3, nutrient agar, 37° C, 18 hours, read-out: minimum inhibitory concentration (M.I.C.)
Protocol: as §1

[7] = tested on: Escherichia coli K-12 ML 1629; conditions: K12ML1629, E. coli K-12 ML 1629, nutrient agar, 37° C, 18 hours, read-out: minimum inhibitory concentration (M.I.C.)
Protocol: as §1

Escherichia coli NIHJ = conditions: E. coli NIHJ, nutrient agar, 37° C, 18 hours, read-out: minimum inhibitory concentration (M.I.C.)
Protocol: as §1

Sarcina lutea PCl 1001 = conditions: Micrococcus luteus, PCL1001, nutrient agar, 37° C, 18 hours, read-out: minimum inhibitory concentration (M.I.C.)
Protocol: as §1

Bacillus subtilis B-558 = conditions: B558, B. subtilis B-558, nutrient agar, 37° C, 18 hours, read-out: minimum inhibitory concentration (M.I.C.)
Protocol: as §1

[8] = tested on: Mycobacterium smegmatis ATCC 607; conditions: Mycolicibacterium smegmatis, ATCC607, nutrient agar, 37° C, 48 hours, read-out: minimum inhibitory concentration (M.I.C.)
Protocol: as §1

[9] = tested on: Klebsiella pneumoniae PCI 602; conditions: PCI602, K. pneumoniae PCI 602, nutrient agar, 37° C, 18 hours, read-out: minimum inhibitory concentration (M.I.C.)
Protocol: as §1

[10] = tested on: Pseudomonas aeruginosa TI-13; conditions: TI13, P. aeruginosa TI-13, nutrient agar, 37° C, 18 hours, read-out: minimum inhibitory concentration (M.I.C.)
Protocol: as §1

[11] = tested on: Pseudomonas aeruginosa 99; conditions: P. aeruginosa 99, nutrient agar, 37° C, 18 hours, read-out: minimum inhibitory concentration (M.I.C.)
Protocol: as §1

Proteus rettgeri GN 311 = conditions: Providencia rettgeri, GN311, nutrient agar, 37° C, 18 hours, read-out: minimum inhibitory concentration (M.I.C.)
Protocol: as §1

[12] = tested on: Escherichia coli K-12 LA 290 R64; conditions: K12LA290R64, 18 h, read-out: minimum inhibitory concentration (M.I.C.)
Protocol: as §1

Proteus rettgeri GN 466 = conditions: Providencia rettgeri, GN466; Proteus rettgeri GN 466; nutrient agar, 37° C, 18 hours; read-out: minimum inhibitory concentration (M.I.C.)
Protocol: as §1

[13] = tested on: Escherichia coli K-12 LA 290 R56; conditions: K12LA290R56, 18 h, read-out: minimum inhibitory concentration (M.I.C.)
Protocol: as §1

[14] = tested on: Escherichia coli K-12 ML 1410; conditions: K12ML1410, E. coli K-12 ML 1410, nutrient agar, 37° C, 18 hours, read-out: minimum inhibitory concentration (M.I.C.)
Protocol: as §1

[15] = tested on: Staphylococcus aureus FDA 209P; conditions: FDA209P, S. aureus FDA 209P, nutrient agar, 37° C, 18 hours, read-out: minimum inhibitory concentration (M.I.C.)
Protocol: as §1

[16] = tested on: Escherichia coli K-12 ML 1630; conditions: K12ML1630, E. coli K-12 ML 1630, nutrient agar, 37° C, 18 hours, read-out: minimum inhibitory concentration (M.I.C.)
Protocol: as §1

[17] = tested on: Pseudomonas aeruginosa No. 12; conditions: P. aeruginosa No. 12, nutrient agar, 37° C, 18 hours, read-out: minimum inhibitory concentration (M.I.C.)
Protocol: as §1

Escherichia coli K-12 = conditions: K12, E. coli K-12, nutrient agar, 37° C, 18 hours, read-out: minimum inhibitory concentration (M.I.C.)
Protocol: as §1

[18] = tested on: Pseudomonas aeruginosa GN 315; conditions: GN315, P. aeruginosa GN 315, nutrient agar, 37° C, 18 hours, read-out: minimum inhibitory concentration (M.I.C.)
Protocol: as §1

Salmonella typhosa T-63 = conditions: Salmonella enterica, 18 h, read-out: minimum inhibitory concentration (M.I.C.)
Protocol: as §1

Row | SMILES | MIC [1] | MIC [2] | MIC [3] | MIC [4] | MIC [5] | MIC [6] | MIC [7] | MIC (Escherichia coli NIHJ) | MIC (Sarcina lutea PCl 1001) | MIC (Bacillus subtilis B-558) | MIC [8] | MIC [9] | MIC [10] | MIC [11] | MIC (Proteus rettgeri GN 311) | MIC [12] | MIC (Proteus rettgeri GN 466) | MIC [13] | MIC [14] | MIC [15] | also measured
1 | NCC[C@H](O)C(=O)N[C@@H]1C[C@H](N)[C@@H](O[C@H]2O[C@H](CN)[C@@H](O)C[C@H]2N)[C@H](O[C@@H]2O[C@H](CO)[C@H](O)[C@H]2O)[C@H]1O [compound 6, 1-N-((S)-4-amino-2-hydroxybutyryl)-3'-deoxy-5-O-β-D-xylofuranosylneamine] | 0.39 µg/mL (≈ 0.723 µM) | 0.39 µg/mL (≈ 0.723 µM) | 0.39 µg/mL (≈ 0.723 µM) | 1.56 µg/mL (≈ 2.89 µM) | 0.78 µg/mL (≈ 1.45 µM) | 3.12 µg/mL (≈ 5.78 µM) | 0.39 µg/mL (≈ 0.723 µM) | 0.78 µg/mL (≈ 1.45 µM) | 25 µg/mL (≈ 46.3 µM) | 0.2 µg/mL (≈ 0.371 µM) | 0.2 µg/mL (≈ 0.371 µM) | 0.39 µg/mL (≈ 0.723 µM) | 25 µg/mL (≈ 46.3 µM) | 12.5 µg/mL (≈ 23.2 µM) | 3.12 µg/mL (≈ 5.78 µM) | 0.2 µg/mL (≈ 0.371 µM) | 0.78 µg/mL (≈ 1.45 µM) | 0.39 µg/mL (≈ 0.723 µM) | 1.56 µg/mL (≈ 2.89 µM) | 0.39 µg/mL (≈ 0.723 µM) | MIC [16]: 0.78 µg/mL (≈ 1.45 µM); MIC [17]: 25 µg/mL (≈ 46.3 µM); MIC (Escherichia coli K-12): 0.39 µg/mL (≈ 0.723 µM); MIC [18]: > 100 µg/mL; MIC (Salmonella typhosa T-63): 0.78 µg/mL (≈ 1.45 µM)
2 | NCC[C@H](O)C(=O)N[C@@H]1C[C@H](N)[C@@H](O[C@H]2O[C@H](CN)[C@@H](O)C[C@H]2N)[C@H](O[C@@H]2O[C@@H](CO)[C@H](O)[C@H]2O)[C@H]1O [Compound No. 3, 1-N-((S)-4-amino-2-hydroxybutyryl)-3'-deoxy-5-O-α-L-arabinofuranosylneamine] | 1.56 µg/mL (≈ 2.89 µM) | 0.39 µg/mL (≈ 0.723 µM) | 0.39 µg/mL (≈ 0.723 µM) | 1.56 µg/mL (≈ 2.89 µM) | 1.56 µg/mL (≈ 2.89 µM) | 0.78 µg/mL (≈ 1.45 µM) | 0.39 µg/mL (≈ 0.723 µM) | 0.78 µg/mL (≈ 1.45 µM) | 25 µg/mL (≈ 46.3 µM) | 0.2 µg/mL (≈ 0.371 µM) | 0.2 µg/mL (≈ 0.371 µM) | 0.39 µg/mL (≈ 0.723 µM) | 25 µg/mL (≈ 46.3 µM) | 6.25 µg/mL (≈ 11.6 µM) | 3.12 µg/mL (≈ 5.78 µM) | 0.2 µg/mL (≈ 0.371 µM) | 0.78 µg/mL (≈ 1.45 µM) | 0.39 µg/mL (≈ 0.723 µM) | 0.78 µg/mL (≈ 1.45 µM) | 0.39 µg/mL (≈ 0.723 µM) | MIC [16]: 0.78 µg/mL (≈ 1.45 µM); MIC [17]: 12.5 µg/mL (≈ 23.2 µM); MIC (Escherichia coli K-12): 0.39 µg/mL (≈ 0.723 µM); MIC [18]: > 100 µg/mL; MIC (Salmonella typhosa T-63): 0.78 µg/mL (≈ 1.45 µM)
3 | NCC[C@H](O)C(=O)N[C@@H]1C[C@H](N)[C@@H](O[C@H]2O[C@H](CN)[C@@H](O)C[C@H]2N)[C@H](O[C@@H]2O[C@H](CN)[C@H](O)[C@H]2O)[C@H]1O [compound 4, 1-N-((S)-4-amino-2-hydroxybutyryl)-5-O-(5-amino-5-deoxy-β-D-xylofuranosyl)-3'-doxyneamine] | 0.2 µg/mL (≈ 0.371 µM) | 0.39 µg/mL (≈ 0.724 µM) | 0.39 µg/mL (≈ 0.724 µM) | 0.78 µg/mL (≈ 1.45 µM) | 0.39 µg/mL (≈ 0.724 µM) | 0.39 µg/mL (≈ 0.724 µM) | 0.39 µg/mL (≈ 0.724 µM) | 0.2 µg/mL (≈ 0.371 µM) | 3.12 µg/mL (≈ 5.79 µM) | 0.2 µg/mL (≈ 0.371 µM) | 0.2 µg/mL (≈ 0.371 µM) | 0.39 µg/mL (≈ 0.724 µM) | 3.12 µg/mL (≈ 5.79 µM) | 3.12 µg/mL (≈ 5.79 µM) | 3.12 µg/mL (≈ 5.79 µM) | 0.39 µg/mL (≈ 0.724 µM) | 0.78 µg/mL (≈ 1.45 µM) | 0.78 µg/mL (≈ 1.45 µM) | 0.78 µg/mL (≈ 1.45 µM) | 0.39 µg/mL (≈ 0.724 µM) | MIC [16]: 0.78 µg/mL (≈ 1.45 µM); MIC [17]: 3.12 µg/mL (≈ 5.79 µM); MIC (Escherichia coli K-12): 0.2 µg/mL (≈ 0.371 µM); MIC [18]: > 100 µg/mL; MIC (Salmonella typhosa T-63): 0.2 µg/mL (≈ 0.371 µM)
